Data on 9 molecules can be found in ChEMBL document CHEMBL1152197, “Convergent synthesis and cruzain inhibitory activity of novel 2-(N'-benzylidenehydrazino)-4-trifluoromethyl-pyrimidines” (Bioorg Med Chem, 2008).

A value given as a limit tells only on which side of the number the result lay.

Assay [1] addresses Cruzipain (Trypanosoma cruzi) (UniProt P25779). The assay can be described thus: Inhibition of Trypanosoma cruzi C-terminal truncated cruzain expressed in DH5alpha Escherichia coli at 100 uM by well-microplate spectrophotometry.
For assay [2], the target named is Cruzipain (Trypanosoma cruzi, UniProt P25779). Kind of assay: Inhibition of Trypanosoma cruzi C-terminal truncated cruzain expressed in DH5alpha Escherichia coli by well-microplate spectrophotometry.
Sequence of Cruzipain (P25779 whole entry, the tested form may be a part): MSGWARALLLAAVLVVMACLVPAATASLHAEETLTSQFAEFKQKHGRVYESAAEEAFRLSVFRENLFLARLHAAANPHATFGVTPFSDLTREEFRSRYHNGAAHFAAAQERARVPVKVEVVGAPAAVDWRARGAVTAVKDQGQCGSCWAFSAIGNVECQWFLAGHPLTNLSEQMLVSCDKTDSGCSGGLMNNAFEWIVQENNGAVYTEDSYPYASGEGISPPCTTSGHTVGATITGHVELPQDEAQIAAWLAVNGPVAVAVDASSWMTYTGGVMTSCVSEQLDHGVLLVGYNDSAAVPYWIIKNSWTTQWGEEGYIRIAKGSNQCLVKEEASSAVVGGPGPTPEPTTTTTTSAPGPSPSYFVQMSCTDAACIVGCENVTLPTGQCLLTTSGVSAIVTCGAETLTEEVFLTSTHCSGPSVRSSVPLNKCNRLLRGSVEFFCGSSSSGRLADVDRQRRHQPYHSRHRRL

What is called inhibition is how much of the control response was suppressed. Higher therefore signals strong suppression. A word on the IC50: it is the concentration needed to halve the response being measured. Higher therefore signals a need for much substance.

Sequence of Cruzipain (Trypanosoma cruzi) (P25779 123-467 limits assumed): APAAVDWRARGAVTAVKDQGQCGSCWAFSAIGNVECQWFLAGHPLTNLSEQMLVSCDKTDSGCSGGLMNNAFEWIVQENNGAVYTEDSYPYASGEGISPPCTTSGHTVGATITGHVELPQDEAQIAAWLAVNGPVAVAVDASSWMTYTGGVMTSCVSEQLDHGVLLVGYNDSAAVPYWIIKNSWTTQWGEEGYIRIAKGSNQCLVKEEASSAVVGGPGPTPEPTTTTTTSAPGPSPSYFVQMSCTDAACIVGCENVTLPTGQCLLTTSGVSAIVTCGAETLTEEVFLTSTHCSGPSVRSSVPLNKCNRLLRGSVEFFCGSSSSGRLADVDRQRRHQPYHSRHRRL

In the case of `FC(F)(F)c1ccnc(N/N=C/c2ccc(Cl)cc2)n1`, the inhibition in assay [1] was determined as 80%. In addition, the IC50 in assay [2] was 85 µM.
With `Cc1cc(C(F)(F)F)nc(N/N=C/c2ccc(Cl)cc2)n1`, in assay [1], the inhibition was 60%. This molecule also displayed an IC50 in assay [2] of 100 µM.
In turn, `Cc1cc(C(F)(F)F)nc(N/N=C/c2ccccc2C)n1` yielded an inhibition in assay [1] of 45%. Besides, the IC50 in assay [2] is more than 100 µM.
In assay [1], `COc1ccccc1/C=N/Nc1nc(C)cc(C(F)(F)F)n1` returned an inhibition of 20%. The molecule further gave an IC50 in assay [2] of more than 150 µM.
In the case of `Cc1ccccc1/C=N/Nc1nccc(C(F)(F)F)n1`, in assay [1], the inhibition was 45%. Also, the IC50 in assay [2] is more than 100 µM.
The molecule `COc1ccc(/C=N/Nc2nccc(C(F)(F)F)n2)cc1` gave an inhibition in assay [1] of 40%. For the same molecule, in assay [2], the IC50 was more than 100 µM.
On the same counts, the results for `O=[N+]([O-])c1ccc(/C=N/Nc2nccc(C(F)(F)F)n2)cc1` are 50% and 100 µM.
As for `FC(F)(F)c1ccnc(N/N=C/c2ccccc2)n1`, the inhibition in assay [1] stood at 30%. The molecule further gave a 50% inhibitory concentration (IC50) in assay [2] of more than 150 µM.
`Cc1ccc(/C=N/Nc2nccc(C(F)(F)F)n2)cc1` showed an inhibition in assay [1] of 40%. In assay [2], this molecule registered an IC50 of more than 100 µM.
